Measured values as given in publication PMC4494889 (Cell reports, 2015).
Numbering of substitutions follows the chain as printed. Where two headings read alike, the source gives them in different places.

Assays:
RIPK1−/− MEFs = experiment: IFNγ-induced RIPK3-dependent cell death; settings: 10 ng/ml IFNγ, 24 hr
RIPK3 [1] = molecular target: T1, RIPK3 (Homo sapiens, UniProt Q9Y572); experiment: 32P autophosphorylation assay, recombinant RIPK3; format: biochemical; settings: 2 μM kinase
RIPK1 [2] = molecular target: T2, RIPK1 (Homo sapiens, UniProt Q13546); experiment: 32P autophosphorylation assay, recombinant RIPK1; format: biochemical; settings: 2 μM kinase
T2 sequence (Q13546 1-327): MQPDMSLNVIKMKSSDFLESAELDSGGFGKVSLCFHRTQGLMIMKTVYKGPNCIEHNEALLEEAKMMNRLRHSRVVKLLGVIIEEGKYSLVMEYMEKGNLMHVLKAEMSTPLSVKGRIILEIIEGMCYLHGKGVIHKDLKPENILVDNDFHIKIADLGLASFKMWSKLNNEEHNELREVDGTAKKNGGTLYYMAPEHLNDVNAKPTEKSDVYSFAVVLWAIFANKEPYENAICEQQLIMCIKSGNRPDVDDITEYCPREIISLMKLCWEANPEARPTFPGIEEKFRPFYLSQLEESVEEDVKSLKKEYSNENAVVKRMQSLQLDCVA

[3] = test system: FADD-deficient Jurkat cells; experiment: Jurkat cell necroptosis assay; settings: for IC50: read-out: IC50, nM Jurkat cell necroptosis assay (RIPK1/3-dependent)
RIPK3 [4] = molecular target: T1, RIPK3; experiment: ADP-Glo in vitro kinase assay, recombinant RIPK3; format: biochemical
RIPK1 [5] = molecular target: T2, RIPK1; experiment: ADP-Glo in vitro kinase assay, recombinant RIPK1
RIPK2 = RIPK2 (Homo sapiens, UniProt O43353); experiment: ADP-Glo in vitro kinase assay, recombinant RIPK2; format: biochemical
Chain of RIPK2 (O43353 whole entry, species assumed): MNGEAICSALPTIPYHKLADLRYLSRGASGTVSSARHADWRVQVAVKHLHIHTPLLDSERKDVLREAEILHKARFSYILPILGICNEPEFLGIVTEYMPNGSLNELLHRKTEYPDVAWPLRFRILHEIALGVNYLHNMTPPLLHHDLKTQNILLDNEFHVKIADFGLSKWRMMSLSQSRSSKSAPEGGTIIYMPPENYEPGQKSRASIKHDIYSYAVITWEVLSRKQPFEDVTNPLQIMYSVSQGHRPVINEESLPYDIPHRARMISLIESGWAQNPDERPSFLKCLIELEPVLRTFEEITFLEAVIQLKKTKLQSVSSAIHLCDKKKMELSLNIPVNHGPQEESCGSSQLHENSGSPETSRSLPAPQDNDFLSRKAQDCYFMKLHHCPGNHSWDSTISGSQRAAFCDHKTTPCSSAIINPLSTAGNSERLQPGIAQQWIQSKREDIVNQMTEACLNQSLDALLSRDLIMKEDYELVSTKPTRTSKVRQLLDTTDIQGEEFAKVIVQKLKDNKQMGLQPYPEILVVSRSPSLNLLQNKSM

[6] = test system: TNFα mRNA in FADD-deficient Jurkat cells; experiment: RIPK1-dependent TNFα mRNA upregulation, qRT-PCR, Jurkat; format: cell-based; settings: 10 ng/ml human TNFα, 8 hr
Abl = Abl (Homo sapiens, UniProt P00519); experiment: ADP-Glo in vitro kinase assay, recombinant Abl; format: biochemical; settings: read-out: IC50, nM ADPGlo, Abl; recombinant Abl (1 ng)
Chain of Abl (P00519 whole entry, species assumed): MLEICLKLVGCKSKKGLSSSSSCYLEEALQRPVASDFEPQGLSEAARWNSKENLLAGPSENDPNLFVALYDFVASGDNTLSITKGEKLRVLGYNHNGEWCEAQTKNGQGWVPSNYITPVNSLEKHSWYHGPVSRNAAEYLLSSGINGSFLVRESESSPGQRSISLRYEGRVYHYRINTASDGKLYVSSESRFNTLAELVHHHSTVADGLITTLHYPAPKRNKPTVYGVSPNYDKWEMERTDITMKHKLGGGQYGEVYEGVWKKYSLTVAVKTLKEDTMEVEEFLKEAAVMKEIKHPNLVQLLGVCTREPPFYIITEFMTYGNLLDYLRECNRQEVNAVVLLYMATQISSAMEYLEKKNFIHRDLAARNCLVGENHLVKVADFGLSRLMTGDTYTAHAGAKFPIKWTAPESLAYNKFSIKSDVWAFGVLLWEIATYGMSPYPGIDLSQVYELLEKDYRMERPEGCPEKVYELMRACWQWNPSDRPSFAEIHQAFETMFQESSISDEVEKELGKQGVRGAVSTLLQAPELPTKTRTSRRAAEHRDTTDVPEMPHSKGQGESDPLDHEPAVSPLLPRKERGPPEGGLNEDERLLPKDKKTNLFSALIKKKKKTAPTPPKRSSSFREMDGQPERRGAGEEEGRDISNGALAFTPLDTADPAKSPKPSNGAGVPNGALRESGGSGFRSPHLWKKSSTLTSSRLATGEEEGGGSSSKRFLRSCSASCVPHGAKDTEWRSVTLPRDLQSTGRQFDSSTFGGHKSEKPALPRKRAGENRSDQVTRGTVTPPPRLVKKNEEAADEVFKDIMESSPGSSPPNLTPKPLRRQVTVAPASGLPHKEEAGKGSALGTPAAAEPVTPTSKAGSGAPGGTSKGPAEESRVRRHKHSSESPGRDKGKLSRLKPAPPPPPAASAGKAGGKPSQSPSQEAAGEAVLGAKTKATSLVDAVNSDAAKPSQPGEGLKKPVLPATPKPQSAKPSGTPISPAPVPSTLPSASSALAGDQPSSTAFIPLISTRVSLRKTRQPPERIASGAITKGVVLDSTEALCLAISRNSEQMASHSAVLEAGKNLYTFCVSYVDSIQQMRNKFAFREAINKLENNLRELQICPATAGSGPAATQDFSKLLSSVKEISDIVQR

[7] = test system: TNFα toxicity in C57BL6/J mice; experiment: TNF-induced injury in vivo; settings: for protection from TNFα toxicity in vivo: 15 min before 5 μg/mouse mouse TNFα i.v.; for activity with respect to survival and injury markers: 0.4 mg/kg i.p., versus Nec-1
[8] = molecular target: T3, RIPK1/RIPK3 “necrosome” complex (Mus musculus, UniProt Q60855); experiment: Necrosome complex formation, co-IP assay in TCZ-stimulated MEFs; format: cell-based; settings: TCZ 6 hr, RIPK3 immunoprecipitation
T3 sequence (Q60855 1-656): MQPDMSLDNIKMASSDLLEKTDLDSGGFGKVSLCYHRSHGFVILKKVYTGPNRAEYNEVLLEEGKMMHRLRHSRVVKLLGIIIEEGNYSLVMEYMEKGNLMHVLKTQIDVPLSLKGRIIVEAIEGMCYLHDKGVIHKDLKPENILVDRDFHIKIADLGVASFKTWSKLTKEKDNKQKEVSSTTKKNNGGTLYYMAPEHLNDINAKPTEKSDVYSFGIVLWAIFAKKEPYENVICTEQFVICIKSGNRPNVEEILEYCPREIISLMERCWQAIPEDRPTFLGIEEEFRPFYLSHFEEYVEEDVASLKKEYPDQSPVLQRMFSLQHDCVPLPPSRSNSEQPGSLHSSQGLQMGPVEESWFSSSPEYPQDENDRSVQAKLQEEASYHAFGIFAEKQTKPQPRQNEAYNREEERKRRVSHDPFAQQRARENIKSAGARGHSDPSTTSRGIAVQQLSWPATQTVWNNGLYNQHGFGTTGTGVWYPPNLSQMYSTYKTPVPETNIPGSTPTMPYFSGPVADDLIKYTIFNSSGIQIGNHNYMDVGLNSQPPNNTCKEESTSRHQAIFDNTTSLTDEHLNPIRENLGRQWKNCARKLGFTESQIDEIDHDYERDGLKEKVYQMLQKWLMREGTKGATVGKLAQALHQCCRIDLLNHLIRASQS

MEFs [9] = experiment: poly; format: cell-based, mouse; settings: 5 μg/ml poly(I:C), 50 μM zVAD.fmk, 24 hr
TNFα mRNA in iBMM cells = experiment: RIPK1-dependent TNFα mRNA upregulation, qRT-PCR, iBMM; format: cell-based, mouse; settings: 10 ng/ml LPS and 50 μM zVAD.fmk, 7 hr
[10] = test system: diversity set of 97 kinases (90 wild type kinase and 7 mutants); format: binding, human; settings: 1 μM
DYRK1b = DYRK1b (Homo sapiens, UniProt Q9Y463); experiment: ScanEDGE; format: binding; settings: 1 μM
Chain of DYRK1b (Q9Y463 whole entry): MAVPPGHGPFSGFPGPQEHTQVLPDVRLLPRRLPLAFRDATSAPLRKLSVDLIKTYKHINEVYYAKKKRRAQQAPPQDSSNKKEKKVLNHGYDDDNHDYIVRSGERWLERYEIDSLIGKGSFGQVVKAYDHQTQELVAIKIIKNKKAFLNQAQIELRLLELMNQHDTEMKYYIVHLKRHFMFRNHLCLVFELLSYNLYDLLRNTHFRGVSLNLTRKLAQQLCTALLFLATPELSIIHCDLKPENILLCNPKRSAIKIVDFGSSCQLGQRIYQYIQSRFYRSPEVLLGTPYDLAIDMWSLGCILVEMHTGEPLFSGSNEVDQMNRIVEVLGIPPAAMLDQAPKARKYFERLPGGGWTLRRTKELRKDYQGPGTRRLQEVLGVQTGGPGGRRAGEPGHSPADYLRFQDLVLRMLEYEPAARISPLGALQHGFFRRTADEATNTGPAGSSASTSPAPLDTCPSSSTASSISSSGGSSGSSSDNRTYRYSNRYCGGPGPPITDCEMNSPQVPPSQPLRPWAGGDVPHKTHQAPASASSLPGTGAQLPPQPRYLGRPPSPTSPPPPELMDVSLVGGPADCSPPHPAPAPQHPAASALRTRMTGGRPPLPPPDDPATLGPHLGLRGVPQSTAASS

MEFs [11] = experiment: TCZ; format: cell-based; settings: 50 ng/ml mouse TNFα, 200 ng/ml cycloheximide, 25 μM zVAD.fmk, 18 hr
RIPK1 [12] = molecular target: T4, RIPK1 (Homo sapiens, UniProt Q13546); experiment: ScanEDGE; format: binding; settings: 1 μM
T4 sequence (Q13546 1-671): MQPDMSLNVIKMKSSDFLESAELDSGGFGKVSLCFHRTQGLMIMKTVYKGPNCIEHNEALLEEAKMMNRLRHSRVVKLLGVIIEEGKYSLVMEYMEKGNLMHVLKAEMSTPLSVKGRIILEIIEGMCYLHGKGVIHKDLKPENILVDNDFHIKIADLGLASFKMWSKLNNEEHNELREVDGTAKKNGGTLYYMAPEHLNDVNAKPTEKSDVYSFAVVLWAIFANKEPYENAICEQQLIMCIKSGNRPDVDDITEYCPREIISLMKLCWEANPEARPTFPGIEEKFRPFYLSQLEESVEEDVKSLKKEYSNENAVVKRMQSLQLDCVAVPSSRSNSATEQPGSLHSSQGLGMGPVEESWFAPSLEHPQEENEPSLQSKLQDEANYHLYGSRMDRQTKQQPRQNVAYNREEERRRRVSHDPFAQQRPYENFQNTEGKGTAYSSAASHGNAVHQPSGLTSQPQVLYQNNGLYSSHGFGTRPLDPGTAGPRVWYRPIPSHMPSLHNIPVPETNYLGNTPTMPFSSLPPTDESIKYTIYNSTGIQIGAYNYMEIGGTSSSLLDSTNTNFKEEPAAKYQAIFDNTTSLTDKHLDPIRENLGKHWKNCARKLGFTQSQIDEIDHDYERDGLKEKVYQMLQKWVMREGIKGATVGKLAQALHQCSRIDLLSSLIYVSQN

L157F/M92T RIPK1 = molecular target: T5, L157F/M92T RIPK1 (Homo sapiens, UniProt Q13546, L157F/M92T); experiment: 32P autophosphorylation assay, L157F/M92T RIPK1; format: biochemical; settings: FLAG-tagged kinase (a.a. 1–327) from HEK293T cells
T5 sequence (Q13546 1-327 M92T/L157F): T2 sequence (Q13546 1-327) with M92T, L157F

RIPK1 [13] = molecular target: T2, RIPK1; experiment: HTRF assay of RIPK1; format: biochemical
MEFs [14] = experiment: RIPK1-dependent apoptosis of MEFs; settings: 10 ng/ml mouse TNFα + 100 nM 5z-7-oxozeaenol, 24 hr
[15] = read-out: IC50, nM ADPGlo, RIPK3, recombinant RIPK3 (20 ng)
[16] = read-out: IC50, nM ADPGlo, RIPK2, recombinant RIPK2 (10 ng)
[17] = read-out: IC50, nM ADPGlo, RIPK1, recombinant RIPK1 (20 ng)

T1 sequence (Q9Y572 whole entry, species assumed): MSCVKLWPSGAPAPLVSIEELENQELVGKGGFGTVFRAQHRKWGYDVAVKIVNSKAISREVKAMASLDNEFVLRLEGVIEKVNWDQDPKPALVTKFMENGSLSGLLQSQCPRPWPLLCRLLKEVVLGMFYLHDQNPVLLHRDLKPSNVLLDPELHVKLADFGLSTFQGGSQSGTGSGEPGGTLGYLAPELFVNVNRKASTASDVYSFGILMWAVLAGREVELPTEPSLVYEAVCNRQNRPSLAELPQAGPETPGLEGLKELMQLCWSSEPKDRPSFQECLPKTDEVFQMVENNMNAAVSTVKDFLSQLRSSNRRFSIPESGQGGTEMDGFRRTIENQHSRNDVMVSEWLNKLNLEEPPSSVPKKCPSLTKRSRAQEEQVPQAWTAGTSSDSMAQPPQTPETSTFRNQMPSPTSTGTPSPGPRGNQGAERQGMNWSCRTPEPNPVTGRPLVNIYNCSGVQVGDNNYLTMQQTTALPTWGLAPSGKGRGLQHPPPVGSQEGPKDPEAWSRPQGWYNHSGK

Structure (SMILES) | inhibition of IFNγ-induced cell death (RIPK1−/− MEFs) | inhibition of RIPK3 in 32P autophosphorylation assay (RIPK3 [1]) | inhibition of RIPK1 in 32P autophosphorylation assay (RIPK1 [2]) | inhibition of TNFα mRNA upregulation, Jurkat cells [6] | IC50 (Abl) [nM] | protection from TNFα toxicity in vivo ([7]; 1 mg/kg i.p.) | inhibition of necrosome complex formation [8] | IC50 (RIPK3 [4]; [15]) [nM] | inhibition of TNFα mRNA upregulation, immortalized macrophages (TNFα mRNA in iBMM cells) | IC50 (RIPK2; [16]) [nM] | IC50 ([3]; 10 ng/ml human TNFα, 24 hr) [nM] | further results
Cc1ccc(NC(=O)c2ccc(CN3CCN(C)CC3)cc2)cc1Nc1nccc(-c2cccnc2)n1 [Gleevec, Imatinib] | Neither Gleevec nor Nilotininb | neither inhibited | neither inhibited |  |  |  |  |  |  |  |  | prevention of necroptosis ([3]; 10 ng/ml human TNFα, 24 hr): nor prevented necroptosis
CNC(=O)c1cc(Oc2ccc(NC(=O)Nc3cc(C(C)(C)C)nn3-c3ccc4ncccc4c3)c(F)c2)ccn1 [DCC-2036] |  |  |  |  |  |  |  |  |  |  |  | IC50 (RIPK3 [4]): 18 nM; IC50 (RIPK1 [5]): 5.7 nM; IC50 (RIPK2): 520 nM; cellular activity, fold lower than ponatinib ([3]; versus ponatinib): > 10 fold
Cc1cn(-c2cc(NC(=O)c3ccc(C)c(Nc4nccc(-c5cccnc5)n4)c3)cc(C(F)(F)F)c2)cn1 [Nilotininb] | Neither Gleevec nor Nilotininb |  |  |  |  |  |  |  |  |  |  | 
CN1C(=O)NC(Cc2c[nH]c3c(Cl)cccc23)C1=O (centres unmarked) [Nec-1, 7-Cl-O-Nec-1] |  | only inhibited RIPK1 | only inhibited RIPK1 | inhibited | > 10000 | significant protection from injury | efficiently blocked necrosome assembly | > 10000 | inhibited | > 10000 | 210 | circulating levels of IL-6 ([7]; 1 mg/kg i.p.): reduced; survival of the animals ([7]; 1 mg/kg i.p.): prevented death of the animals; inhibition of poly(I:C)/zVAD.fmk-induced cell death (MEFs [9]): marginal protection
Cc1ccc(CCCCN2C(=O)NC(Cc3c[nH]c4c(Cl)cccc34)C2=O)cc1C#Cc1cnc2cccnn12 (centres unmarked) [PN10] |  |  |  | efficiently inhibited | > 10000 | fully protective | efficiently inhibited |  | efficiently inhibited | 1400 |  | inhibition of other kinases of the ScanEDGE panel [10]: No other kinase was inhibited >65%; activity with respect to survival and injury markers [7]: significantly higher activity than Nec-1; inhibition of DYRK1b in ScanEDGE panel (DYRK1b): 79%; Maximal protection from TCZ-induced cell death (MEFs [11]): ~ 85%; inhibition of RIPK1 in ScanEDGE panel (RIPK1 [12]): > 99%
Cc1ccc(C(=O)Nc2ccc(CN3CCN(C)CC3)c(C(F)(F)F)c2)cc1C#Cc1cnc2cccnn12 [Ponatinib, ponatinib] |  | inhibition | inhibition | efficiently inhibited |  | completely prevented toxicity of TNFα | substantial, but lower activity |  | efficiently inhibited |  |  | activity with respect to survival and injury markers [7]: significantly higher activity than Nec-1; inhibition of L157F/M92T RIPK1 in 32P autophosphorylation assay (L157F/M92T RIPK1): inhibited; inhibition of RIPK1 in HTRF assay (RIPK1 [13]): inhibition; protection from RIPK1-dependent, RIPK3-independent apoptosis (MEFs [14]): protected
CC(C)S(=O)(=O)c1ccc2nccc(Nc3ccc4scnc4c3)c2c1 [GSK-872] | blockade of cell death |  |  |  |  |  | not affected |  |  |  |  | inhibition of poly(I:C)/zVAD.fmk-induced cell death (MEFs [9]): inhibit; protection from RIPK1-dependent, RIPK3-independent apoptosis (MEFs [14]): did not inhibit RIPK1-dependent apoptosis; protection from TCZ-induced cell death (MEFs [11]): efficiently protecting cells
Cc1cc(-c2cnc(N)c3c(-c4ccc5scnc5c4)csc23)n(C)n1 [GSK-843] |  |  |  |  |  |  | not affected |  |  |  |  | protection from TCZ-induced cell death (MEFs [11]): efficiently protecting cells
COc1ccc2c(c1)C1=NN(C(C)=O)C(c3ccc(F)cc3)C1CC2 (centres unmarked) [Nec-3] |  |  |  |  | > 10000 |  |  | > 10000 |  | > 10000 | 260 | IC50 (RIPK1 [5]; [17]): 840 nM
CN1CCN(Cc2ccc(NC(=O)c3cccc(C#Cc4cnc5cccnn45)c3)cc2C(F)(F)F)CC1 [CS1] |  |  |  |  |  |  |  | 7.4 |  | 63 | 219 | IC50 (RIPK1 [5]; [17]): 42 nM
